Experimental data published in patent publication US20170052170A1, “NOVEL CELL LINES AND METHODS” (priority 2009, published 2017).

How the values were obtained:
[1] = target: T1, sweet taste receptor (human T1R2 and T1R3 subunits, mouse Gα15) (Homo sapiens, UniProt Q7RTX0+Q8TE23, C757R/I191V/I486V/R317G); experiment: sweet taste receptor-expressing cell-based assay (calcium flux); conditions: natural, high intensity and artificial sweeteners; FIGS. 23 and 24
T1 construct: expressed in transfected cells; host or cells: HEK293T (ATCC CRL-11268)
T1 sequence (Q8TE23 20-839 I191V/R317G/I486V): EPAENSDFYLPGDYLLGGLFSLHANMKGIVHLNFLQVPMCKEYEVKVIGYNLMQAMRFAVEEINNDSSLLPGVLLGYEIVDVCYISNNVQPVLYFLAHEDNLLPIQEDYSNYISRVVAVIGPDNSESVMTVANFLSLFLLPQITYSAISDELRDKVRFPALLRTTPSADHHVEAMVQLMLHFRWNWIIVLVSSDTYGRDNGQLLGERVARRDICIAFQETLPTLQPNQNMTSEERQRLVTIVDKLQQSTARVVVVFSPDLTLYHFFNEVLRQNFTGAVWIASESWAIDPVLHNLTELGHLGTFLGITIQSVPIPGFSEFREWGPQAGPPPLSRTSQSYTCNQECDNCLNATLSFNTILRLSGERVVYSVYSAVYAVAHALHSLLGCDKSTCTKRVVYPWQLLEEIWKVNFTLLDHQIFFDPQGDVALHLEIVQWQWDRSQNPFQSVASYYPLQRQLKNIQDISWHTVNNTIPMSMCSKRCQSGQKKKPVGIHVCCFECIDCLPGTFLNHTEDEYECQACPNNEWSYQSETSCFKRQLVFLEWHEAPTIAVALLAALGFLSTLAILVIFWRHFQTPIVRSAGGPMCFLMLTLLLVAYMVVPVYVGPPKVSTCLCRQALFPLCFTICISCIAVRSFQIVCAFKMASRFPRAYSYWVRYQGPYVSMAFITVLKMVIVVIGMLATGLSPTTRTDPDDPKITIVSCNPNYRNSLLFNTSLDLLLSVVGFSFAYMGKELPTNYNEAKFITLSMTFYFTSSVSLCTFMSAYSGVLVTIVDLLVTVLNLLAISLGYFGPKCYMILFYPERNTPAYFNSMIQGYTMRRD
T1 sequence (Q7RTX0 21-852 C757R): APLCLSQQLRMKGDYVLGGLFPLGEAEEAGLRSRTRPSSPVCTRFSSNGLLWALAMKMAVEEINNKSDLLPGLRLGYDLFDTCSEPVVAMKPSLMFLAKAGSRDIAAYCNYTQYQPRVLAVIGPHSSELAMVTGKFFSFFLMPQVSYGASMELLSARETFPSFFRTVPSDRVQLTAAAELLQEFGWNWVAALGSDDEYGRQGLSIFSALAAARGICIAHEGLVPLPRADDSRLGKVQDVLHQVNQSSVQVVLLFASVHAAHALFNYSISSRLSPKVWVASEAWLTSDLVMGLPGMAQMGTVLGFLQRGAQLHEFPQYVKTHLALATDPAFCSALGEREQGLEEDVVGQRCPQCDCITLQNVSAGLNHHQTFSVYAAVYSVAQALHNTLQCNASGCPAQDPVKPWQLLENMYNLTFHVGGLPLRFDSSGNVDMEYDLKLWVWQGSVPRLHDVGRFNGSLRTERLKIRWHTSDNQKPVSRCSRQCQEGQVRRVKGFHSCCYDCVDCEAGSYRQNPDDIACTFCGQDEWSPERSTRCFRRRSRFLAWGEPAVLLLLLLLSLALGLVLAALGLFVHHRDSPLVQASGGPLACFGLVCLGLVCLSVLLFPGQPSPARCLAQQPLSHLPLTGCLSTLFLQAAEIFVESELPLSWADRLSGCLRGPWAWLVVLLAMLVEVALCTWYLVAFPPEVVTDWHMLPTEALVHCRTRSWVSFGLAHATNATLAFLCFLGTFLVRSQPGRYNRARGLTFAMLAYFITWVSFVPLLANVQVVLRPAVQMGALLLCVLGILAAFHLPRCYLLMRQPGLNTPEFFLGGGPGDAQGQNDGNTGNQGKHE
Source text: FIG. 24 (A-C) is series of line graphs representing the data obtained in various dose response experiments using sweet taste receptor agonists in a sweet taste receptor-expressing cell-based assay (using cells of this invention). (A) The responses of a sweet taste receptor-expressing cell line to natural caloric sweeteners were plotted as a function of the agonist concentration. (B) Dose response curves of common artificial sweeteners in a sweet taste receptor-expressing cell-based assay. (C) Dose response curves of natural high-intensity sweeteners in a sweet taste receptor-expressing cell-based assay.
FIG. 25 is a series of representative response traces generated after performing a sweet taste receptor-expressing cell-based assay using cells of this invention.
To identify a taste receptor modulator (e.g., umami taste receptor modulator or sweet taste receptor modulator), one exposes a cell or cell line of the invention to a test compound under conditions in which the taste receptor (e.g., umami taste receptor or sweet taste receptor) would be expected to be functional and then detects a statistically significant change (e.g., p<0.05) in taste receptor activity (e.g., umami taste receptor activity or sweet taste receptor activity) compared to a suitable control, e.g., cells that are not exposed to the test compound. Positive and/or negative controls using known agonists or antagonists and/or cells expressing different combinations of taste receptor subunits (e.g., umami taste receptor subunits or sweet taste receptor subunits) (and optionally a G protein) may also be used. In some embodiments, the taste receptor activity (e.g., umami taste receptor activity or sweet taste receptor activity) to be detected and/or measured is calcium release from the endoplasmic reticulum as a result of the down stream signaling events following taste receptor activation (e.g., umami taste receptor activation or sweet taste receptor activation). One of ordinary skill in the art would understand that various assay parameters may be optimized, e.g., signal to noise ratio.
See, e.g., FIGS. 23 and 24.

[2] = target: T2, sweet taste receptor (T1R2/T1R3) (Homo sapiens, UniProt Q7RTX0+Q8TE23, C757R/I191V/I486V/R317G); experiment: Sweet cell-based calcium flux assay, HEK293T cells expressing T1R2, T1R3 and mouse Gα15
T2 construct: expressed in transfected cells; host or cells: HEK293T (ATCC CRL-11268)
T2 sequence (Q8TE23 20-839 I191V/R317G/I486V): T1 sequence (Q8TE23 20-839 I191V/R317G/I486V)
T2 sequence (Q7RTX0 21-852 C757R): T1 sequence (Q7RTX0 21-852 C757R)
Source text: Plates are then loaded on a high throughput plate reader (Hamamatsu FDSS). […] Calcium flux is detected for 90 seconds.

Question: `O=C(CO)[C@@H](O)[C@H](O)[C@H](O)CO` [fructose] was tested. Which “response of sweet taste receptor cells and cell lines to known classes of sweet compounds” value [1] did it give?
Answer: respond

Question: And the EC50 [2]?
Answer: < 4.3 mM

Question: What about the “response of cells grown in the "Final" growth conditions” value ([2]; FIG. 20, high density, coated plates, low glucose media, serum deprivation) of the same molecule?
Answer: respond robustly
